Test results from ChEMBL document CHEMBL1156359, “New cytotoxic sesterterpenes from the sponge Sarcotragus species” (2001).
≈ marks a conversion by molar mass, not a printed value.

What was measured:
Assay type in all cases: functional
Details in all cases: read-out: ED50 (the source's name)
A549 = assay: Cytotoxicity against human A549 cells
SK-OV-3 = assay: Cytotoxicity against human SKOV3 cells
XF498 = assay: Cytotoxicity against human XF498 cells
HCT-15 = assay: Cytotoxicity against human HCT15 cells
SK-MEL-2 = assay: Cytotoxicity against human SK-MEL-2 cells

| Compound | EC50 (A549) [µg/mL] | EC50 (SK-OV-3) [µg/mL] | EC50 (XF498) [µg/mL] | EC50 (HCT-15) [µg/mL] | EC50 (SK-MEL-2) [µg/mL] |
| --- | --- | --- | --- | --- | --- |
| CC1=C(O)[C@@H](C/C(C)=C\CC/C(C)=C/CC/C(C)=C/CCc2ccoc2)OC1=O | 16.9 (≈ 42.4 µM) | 26.8 (≈ 67.3 µM) | 20.4 (≈ 51.2 µM) | 27.5 (≈ 69 µM) | 16.3 (≈ 40.9 µM) |
| COc1cccc2c1C(=O)c1c(O)c3c(c(O)c1C2=O)C[C@@](O)(C(=O)CO)C[C@@H]3O[C@H]1C[C@H](N)[C@H](O)[C@H](C)O1 [DOXORUBICIN] | 0.02 (≈ 0.0368 µM) | 0.11 (≈ 0.202 µM) | 0.08 (≈ 0.147 µM) | 0.04 (≈ 0.0736 µM) | 0.02 (≈ 0.0368 µM) |
| CC1=C(O)/C(=C/[C@H](C)CCC/C(C)=C/CCc2coc(Cc3ccoc3)c2)OC1=O [IRCININ 1] | 3.72 (≈ 9.06 µM) | 6.55 (≈ 16 µM) | 5.42 (≈ 13.2 µM) | 6.91 (≈ 16.8 µM) | 8.95 (≈ 21.8 µM) |
| CC1=C(O)/C(=C/[C@H](C)CC/C=C(/C)CCCc2coc(Cc3ccoc3)c2)OC1=O [IRCININ 2] | 3.8 (≈ 9.26 µM) | 5.9 (≈ 14.4 µM) | 3.7 (≈ 9.01 µM) | 4.74 (≈ 11.5 µM) | 5.87 (≈ 14.3 µM) |
| CC1=C(O)[C@@H](C/C(C)=C\CCC(C)/C=C/C=C(\C)CCCc2ccoc2)OC1=O (stereo not given in full) [SARCOTIN A] | 29.7 (≈ 74.5 µM) | 22.1 (≈ 55.4 µM) | 24.8 (≈ 62.3 µM) | 27.2 (≈ 68.2 µM) | > 30 |
| CC1=C(O)[C@H](C/C(C)=C\CCC(C)/C=C\C=C(\C)CCCc2ccoc2)OC1=O (stereo not given in full) [SARCOTIN B] | 10.1 (≈ 25.3 µM) | 11.3 (≈ 28.4 µM) | 8.89 (≈ 22.3 µM) | 8.95 (≈ 22.5 µM) | 7.78 (≈ 19.5 µM) |
| CC1=C(O)/C(=C\[C@H](C)CCC/C(C)=C/CCc2coc(Cc3ccoc3)c2)OC1=O [SARCOTIN D] | 4.98 (≈ 12.1 µM) | 9.39 (≈ 22.9 µM) | 6.52 (≈ 15.9 µM) | 9.82 (≈ 23.9 µM) | 10.2 (≈ 24.8 µM) |
| CC1=C(O)/C(=C\[C@H](C)CC/C=C(/C)CCCc2coc(Cc3ccoc3)c2)OC1=O [SARCOTIN E] | 3.8 (≈ 9.26 µM) | 6.24 (≈ 15.2 µM) | 5 (≈ 12.2 µM) | 7.31 (≈ 17.8 µM) | 8.37 (≈ 20.4 µM) |
